Values of other authors as cited in patent publication US20150335679A1, “Methods and Compositions for Treating Malignancies with Dendritic Cells” (Kiromic, LLC, priority 2014, published 2015).
Like-named read-outs stand apart in the source and are kept apart here.

Key:
Treg = settings: low-dose
[1] = tested on: Tregs; breast tumor-reactive T cells
[2] = 50 mg orally daily for 3 months

O=P1(N(CCCl)CCCl)NCCCO1 (stereo not drawn) [CYP, cyclophosphamide]
Treg number and functionality (Treg): decreases
Treg suppressor function (Tregs; 250 mg/m^2): impaired suppressor function
duration of decreased Treg frequency (Tregs; 250 mg/m^2): decreased Treg frequency up to day 71
Alpha-fetoprotein-specific T-cell responses (Tregs; lower treatment arms): induced
absolute and relative frequency of Tregs in the blood of patients (Tregs; the two lower doses (150, 250 mg/m^2)): induced a decrease
course of Tregs [1, 2]: remained decreased until day 42, returning to pretreatment levels by day 84
time to reduction of Tregs [1, 2]: ≤ 14 days
patients with endogenous breast tumor-reactive T cells ([1]; day 14, 27% before CYP treatment): 73%
patients with endogenous breast tumor-reactive T cells ([1]; day 42): 80%
patients with endogenous breast tumor-reactive T cells ([1]; day 84): 88%
rates of disease control (advanced solid tumors; all CYP regimens (oral 50 mg/day, single i.v. 1,000 mg, or both) vs adenovirus only): higher rates of disease control
decrease of Treg numbers (advanced solid tumors; metronomic groups): most effective in decreasing Treg numbers
